Test results from patent publication US10144730B2, “Inhibitors of c-Jun-N-terminal kinase (JNK)” (Dana-Farber Cancer Institute, Inc., priority 2011, dated 2018).

Columns and labels:
[1] = target: JNK1 (Homo sapiens, UniProt P45983); assay: Biochemical JNK1 kinase inhibition (Z'-lyte format); conditions: Table 2
[2] = target: JNK2 (Homo sapiens, UniProt P45984); assay: Biochemical JNK2 kinase inhibition (Z'-lyte format); conditions: Table 2
[3] = target: JNK3 (Homo sapiens, UniProt P53779); assay: Biochemical JNK3 kinase inhibition (Z'-lyte format); conditions: Table 2
JNK3, sequence (P53779 whole entry): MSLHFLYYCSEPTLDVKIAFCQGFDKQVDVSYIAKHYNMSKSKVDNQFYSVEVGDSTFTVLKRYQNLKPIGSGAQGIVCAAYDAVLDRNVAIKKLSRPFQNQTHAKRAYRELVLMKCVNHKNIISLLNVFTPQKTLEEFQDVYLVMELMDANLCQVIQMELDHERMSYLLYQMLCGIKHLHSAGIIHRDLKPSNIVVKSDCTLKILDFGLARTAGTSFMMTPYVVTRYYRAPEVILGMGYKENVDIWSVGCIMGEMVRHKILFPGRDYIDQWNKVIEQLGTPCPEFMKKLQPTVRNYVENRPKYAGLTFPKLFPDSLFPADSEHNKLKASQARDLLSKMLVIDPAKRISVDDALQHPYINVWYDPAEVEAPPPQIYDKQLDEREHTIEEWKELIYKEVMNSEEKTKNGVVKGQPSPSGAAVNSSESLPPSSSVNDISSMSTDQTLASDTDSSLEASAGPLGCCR

[4] = system: c-Jun phosphorylation; assay: LanthaScreen TR-FRET cell assay for c-Jun phosphorylation in HeLa cells; type: cell-based; conditions: Homo sapiens; for IC50: HeLa cells, rounded values of the text, read-out: IC50 for inhibiting c-Jun phosphorylation in HeLa cells; for EC50: Hela cells, TNF-α stimulation, read-out: p-c-Jun EC50 (nM) Hela
Protocol: Phosphorylation was determined by measuring the time resolved FRET (TR-FRET) between a terbium labeled phospho-c-Jun specific antibody and GFP. The cells were plated in white tissue culture treated 384 well plates at a density of 10,000 cell per well in 32 μL assay medium (Opti-MEM®, supplemented with 0.5% charcoal/dextran-treated FBS, 100 U/ml penicillin and 100 μg/ml streptomycin, 0.1 mM nonessential amino acids, 1 mM sodium pyruvate, 25 mM Hepes, pH 7.3, and lacking phenol red). After overnight incubation, cells were pretreated for 90 minutes with compound (at indicated concentration) diluted in 4 μL assay buffer followed by 30 min of stimulation with 5 ng/ml of TNF-α in 4 μL assay buffer (final assay volume was 40 μl). The medium was then removed by aspiration, and the cells were lysed by adding 20 μl of lysis buffer (20 mM Tris-HCl, pH 7.6, 5 mM EDTA, 1% Nonidet P-40 substitute, 5 mM NaF, 150 mM NaCl, and 1:100 protease and phosphatase inhibitor mix, SIGMA P8340 and P2850, respectively). The lysis buffer included 2 nM of the terbium-labeled anti-c-Jun (pSer73) detection antibodies (Life Technologies). After allowing the assay to equilibrate for 60 minutes at room temperature, TR-FRET emission ratios were determined on a BMG Pherastar fluorescence plate reader (BMG Labtech, Cary, N.C.) using the following parameters: excitation at 340 nm; emission at 520 nm and 490 nm; 100 μs lag time; 200 μs integration time; and emission ratio=Em520/Em490. All data were analyzed and plotted using Graphpad Prism 4.
(§1) In parallel with biochemical evaluation, the ability of the compounds to inhibit JNK activity in cells was investigated using two independent assays formats. This is a critical issue because there are several reported JNK inhibitors with nanomolar biochemical potency that translate into micromolar cellular inhibitors. The most well characterized direct phosphorylation substrate of JNK is the transcription factor c-Jun.

[5] = system: c-Jun phosphorylation; assay: High throughput microscopy of c-Jun phosphorylation in A375 cells; type: cell-based; conditions: Homo sapiens, A-375; for IC50: rounded values of the text, read-out: IC50 for inhibiting c-Jun phosphorylation in A375 cells
Protocol: Cells were fixed in 2% paraformaldehyde for 10 min at room temperature and washed with PBS-T (Phosphate Buffered Saline, 0.1% Tween 20). Cells were permeabilized in methanol for 10 min at room temperature, washed with PBS-T, and blocked in Odyssey Blocking Buffer (LI-COR Biosciences) for 1 hour at room temperature. Cells were incubated overnight at 4° C. with antibody specific for Erk1/2(pT202/pY204), Akt(pS473), c-Jun(pS73), pP38(T180/Y182) and pSTAT3(Y705) (Cell Signaling Technology), pRSK1(S380) and pMSK1(S376) (Epitomics), and NF-κB (Santa Cruz Biotechnology) diluted 1:400 in Odyssey Blocking Buffer. […] Cells were washed twice with PBS and imaged in an imageWoRx high-throughput microscope (Applied Precision). Data were plotted using DataPflex.
as §1

[6] = system: JNK; assay: Binding kinetics (pulse-chase) assay, ATP-biotin labeling of JNK in A375 cells; type: cell-based; conditions: 1 μM compound
Protocol: A375 cells were incubated with inhibitors for the indicated amount of time after which cell lysates were prepared and labeled with ATP-biotin. Biotinylated proteins were pulled down with streptavidin beads and material bound to the beads was eluted and separate by SDS-PAGE followed by Western blot analysis for JNK.
A375 cells (ATCC® CRL-1619™) were pre-treated with 1 μM compound for the indicated amounts of time. Remove the medium and wash 3 times with PBS. Resuspend the cell pellet with 1 mL Lysis Buffer (1% NP-40, 1% CHAPS, 25 mM Tris, 150 mM NaCl, Phosphatase Inhibitor Cocktail, Roche 04906845001, and Protease Inhibitor Cocktail Roche 11836170001). Rotate end-to-end for 30 min at 4° C. Lysates were cleared by centrifugation at 14000 rpm for 15 min in the Eppendorf. The cleared lysates gel filtered into Kinase Buffer (0.1% NP-40, 20 mM HEPES, 150 mM NaCl, Phosphatase Inhibitor Cocktail, and Protease Inhibitor Cocktail) using Bio-Rad 10DG colums. The total protein concentration of the gel-filtered lysate should be around 5-15 mg/ml. […]
In order to evaluate the kinetics with which JNK-IN-5 could covalently modify JNK in cells, a pulse-chase assay was developed . […] Streptavidin affinity chromatography is then used to isolate all biotinylated proteins and JNK protein is detected following SDS-PAGE and Western blotting (FIG. 8). […]

[7] = system: NF-kB nuclear translocation; assay: High-throughput microscopy, NF-kB nuclear translocation; type: cell-based; conditions: Homo sapiens, A-375, A375 cells, TNF-α stimulation, read-out: Cellular EC50 NF-kB
Protocol: (§2) A375 cells were stimulated with anisomycin (FIGS. 14A and 14C to 14F), IGF-1 (FIG. 14B), IL-6 (FIG. 14G), and TNF-α (FIG. 14H) for sixty minutes. The output of multiple signaling pathways was measured using high throughput microscopy at multiple concentrations of four JNK inhibitors and a control compound specific to each pathway DMSO (FIG. 14A), MK2206 (allosteric Akt inhibitor, Haoyuan Chemexpress Co., Limited. Hirai, et al., 2010) (FIG. 14B), PD0325901 (allosteric Mek inhibitor, Haoyuan Chemexpress Co., Limited. Barrett, et al., 2008) (FIGS. 14C and 14D), SB239063 (ATP-competitive p38 inhibitor, Haoyuan Chemexpress Co., Limited. Underwood et al., 2000) (FIGS. 14E and 14F), KIN001-040 (ATP-competitive JAK1,2,3 inhibitor, Haoyuan Chemexpress Co., Limited. Thompson et al., 2002) (FIG. 14G), and KIN001-208 (IKK inhibitor VIII, Haoyuan Chemexpress Co., Limited., Murata, et al., 2004) (FIG. 14H).
(§3) Cells were plated at 7500 cells/well in 96-well microscopy plates (Corning) in recommended media for 24 hours, and then starved in media lacking serum for 16 hours. Cells were pre-treated for 180 minutes with 10-fold stock solutions of JNK inhibitors and for 10 min with control compounds MK2206, PD0325901, SB239063, KIN040, and KIN208 and treated with 10-fold stock solutions of IGF-1, IL-6, TNF-α (all PeproTech), or anisomycin for 60 minutes. Cells were fixed in 2% paraformaldehyde for 10 min at room temperature and washed with PBS-T (Phosphate Buffered Saline, 0.1% Tween 20). Cells were permeabilized in methanol for 10 min at room temperature, washed with PBS-T, and blocked in Odyssey Blocking Buffer (LI-COR Biosciences) for 1 hour at room temperature. Cells were incubated overnight at 4° C. with antibody specific for Erk1/2(pT202/pY204), Akt(pS473), c-Jun(pS73), pP38(T180/Y182) and pSTAT3(Y705) (Cell Signaling Technology), pRSK1(S380) and pMSK1(S376) (Epitomics), and NF-κB (Santa Cruz Biotechnology) diluted 1:400 in Odyssey Blocking Buffer. Cells were washed three times in PBS-T and incubated with rabbit-specific secondary antibody labeled with Alexa Fluor 647 (Invitrogen) diluted 1:2000 in Odyssey Blocking Buffer. Cells were washed once in PBS-T and once in PBS and incubated in 250 ng/ml Hoechst 33342 (Invitrogen) and 1:1000 Whole Cell Stain (blue; Thermo Scientific) solution. Cells were washed twice with PBS and imaged in an imageWoRx high-throughput microscope (Applied Precision). Data were plotted using DataPflex. […]

[8] = system: phosphorylation of Akt; assay: High-throughput microscopy, phosphorylation of Akt; type: cell-based; conditions: Homo sapiens, A-375, A375 cells, IGF-1 stimulation, read-out: Cellular EC50 pAkt
Protocol: as §2, §3

[9] = system: phosphorylation of Erk; assay: High-throughput microscopy, phosphorylation of Erk; type: cell-based; conditions: Homo sapiens, A-375, A375 cells, anisomycin stimulation, read-out: Cellular EC50 pErk
Protocol: as §2, §3

[10] = system: phosphorylation of p38; assay: High-throughput microscopy, phosphorylation of p38; type: cell-based; conditions: Homo sapiens, A-375, A375 cells, anisomycin stimulation, read-out: Cellular EC50 pP38
Protocol: as §2, §3

[11] = system: phosphorylation of RSK; assay: High-throughput microscopy, phosphorylation of RSK; type: cell-based; conditions: Homo sapiens, A-375, A375 cells, anisomycin stimulation, read-out: Cellular EC50 pRSK
Protocol: as §2, §3

[12] = system: phosphorylation of STAT3; assay: High-throughput microscopy, phosphorylation of STAT3; type: cell-based; conditions: Homo sapiens, A-375, A375 cells, IL-6 stimulation, read-out: Cellular EC50 pSTAT3
Protocol: as §2, §3

[13] = A375 cells, anisomycin stimulation, read-out: p-c-Jun EC50 (nM) A375
[14] = Table 5, A375, read-out: E50/A375

JNK1, sequence (P45983 whole entry): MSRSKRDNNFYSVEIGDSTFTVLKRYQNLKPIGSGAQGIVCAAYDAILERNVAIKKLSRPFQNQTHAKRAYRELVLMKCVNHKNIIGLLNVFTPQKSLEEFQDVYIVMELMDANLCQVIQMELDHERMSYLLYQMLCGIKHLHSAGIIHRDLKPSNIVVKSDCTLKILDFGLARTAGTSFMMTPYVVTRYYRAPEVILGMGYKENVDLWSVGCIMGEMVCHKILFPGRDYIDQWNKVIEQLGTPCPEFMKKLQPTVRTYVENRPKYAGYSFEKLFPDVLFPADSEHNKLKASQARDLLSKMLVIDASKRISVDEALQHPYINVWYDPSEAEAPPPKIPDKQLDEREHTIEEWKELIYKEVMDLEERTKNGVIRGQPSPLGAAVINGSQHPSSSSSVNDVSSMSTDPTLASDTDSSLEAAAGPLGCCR
JNK2, sequence (P45984 whole entry): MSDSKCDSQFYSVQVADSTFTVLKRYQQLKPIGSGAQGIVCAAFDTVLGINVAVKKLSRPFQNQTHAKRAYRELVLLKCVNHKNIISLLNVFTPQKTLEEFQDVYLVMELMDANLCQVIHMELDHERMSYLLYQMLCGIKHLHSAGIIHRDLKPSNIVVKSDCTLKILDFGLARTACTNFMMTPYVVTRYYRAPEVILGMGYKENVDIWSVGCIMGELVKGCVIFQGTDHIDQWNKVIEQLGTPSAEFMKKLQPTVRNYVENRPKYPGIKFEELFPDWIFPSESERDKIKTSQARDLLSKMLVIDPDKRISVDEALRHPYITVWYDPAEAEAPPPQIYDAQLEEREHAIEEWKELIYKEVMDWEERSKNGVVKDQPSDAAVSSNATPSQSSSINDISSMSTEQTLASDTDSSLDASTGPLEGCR

## C=CC(=O)Nc1cccc(C(=O)Nc2ccc(Nc3nccc(-c4cccnc4)n3)cc2)c1 [JNK-IN-5]
[1]
  IC50: 2.11 nM
[2]
  IC50: 1.93 nM
[3]
  IC50: 0.96 nM
[4]
  IC50: ~100 nM
  EC50: 118 nM
[5]; [13]
  EC50: 32 nM
[5]; A375 cells
  IC50: ~30 nM
[5]; [14]
  EC50: 32 nM
[6]
  incubation time to fully protect JNK from labeling by ATP-biotin: approximately three

## Cc1ccc(NC(=O)/C=C/CN(C)C)cc1C(=O)Nc1ccc(Nc2nccc(-c3cccnc3)n2)cc1 [JNK-IN-9]
[3]
  IC50: 0.5 nM
[4]
  EC50: 104 nM
[5]; [13]
  EC50: 117 nM

## Cc1ccc(C(=O)Nc2ccc(Nc3nccc(-c4cccnc4)n3)cc2)cc1NC(=O)/C=C/CN(C)C [JNK-IN-10]
[3]
  IC50: 0.5 nM
[4]
  EC50: 173 nM
[5]; [13]
  EC50: 141 nM

## CN(C)C/C=C/C(=O)Nc1cccc(C(=O)Nc2ccc(Nc3nccc(-c4c(-c5ccccc5)nn5ccccc45)n3)cc2)c1 [JNK-IN-11]
[1]
  IC50: 1.34 nM
[2]
  IC50: 0.5 nM
[3]
  IC50: 0.5 nM
[4]
  IC50: ~30 nM
  EC50: 48 nM
[5]; A375 cells, anisomycin stimulation, high-throughput microscopy, Table 4, read-out: Cellular EC50 pc-Jun
  EC50: < 10 nM
[5]; [13]
  EC50: 8.6 nM
[5]; A375 cells
  IC50: ~10 nM
[7]
  EC50: > 10000 nM
[8]
  EC50: > 10000 nM
[9]
  EC50: 19 nM
[10]
  EC50: 15 nM
[11]
  EC50: 20 nM
[12]
  EC50: > 10000 nM

## Oc1c2ccccc2c2c3c(cccc13)N=N2 [SP-600125, reference compound]
[4]
  EC50: 7450 nM
[5]; [13]
  EC50: 1980 nM

## C=CC(=O)Nc1ccc(C(=O)Nc2cccc(Nc3nccc(-c4cccnc4)n3)c2)cc1 [ZG-9]
[5]; [14]
  EC50: 5460 nM

## CN(C)C/C=C/C(=O)Nc1ccc(C(=O)Nc2cccc(Nc3nccc(-c4cccnc4)n3)c2)cc1 [ZG-10]
[5]; [14]
  EC50: 2400 nM
